# Test results taken from patent publication US10786577B2, “Pharmaceutical composition comprising glutatione disulfide and glutathione disulfide S-oxide” (OBSCHESTVO S OGRANICHENNOY OTVETSTVENNOSTJU “IVA FARM”, priority 2017, dated 2020).
# Key:
# [1] = system: glucose-6-phosphate dehydrogenase (XE 1.1.1.49); assay: Liver enzyme activity in rats with cyclophosphan hepatotoxicity; conditions: rat liver cytosolic fraction; cyclophosphan 20 mg/kg for 10 days; test substance intraperitoneally 10 mg/kg (compound 2: 0.1 mg/kg)
# [2] = system: glutathione reductase (XE 1.6.4.2); assay: as above; conditions: rat liver cytosolic fraction; cyclophosphan 20 mg/kg for 10 days; test substance intraperitoneally 10 mg/kg (compound 2: 0.1 mg/kg)
# [3] = system: glutathione-S-transferase (XE 2.5.1.18); assay: as above; conditions: rat liver cytosolic fraction; cyclophosphan 20 mg/kg for 10 days; test substance intraperitoneally 10 mg/kg (compound 2: 0.1 mg/kg)
# reduced glutathione = assay: Liver reduced glutathione in rats with cyclophosphan hepatotoxicity; conditions: rat liver; cyclophosphan 20 mg/kg for 10 days; test substance intraperitoneally 10 mg/kg (compound 2: 0.1 mg/kg)
# [4] = system: glutathione peroxidase (XE 1.11.1.9); assay: Liver enzyme activity in rats with cyclophosphan hepatotoxicity; conditions: rat liver cytosolic fraction; cyclophosphan 20 mg/kg for 10 days; test substance intraperitoneally 10 mg/kg (compound 2: 0.1 mg/kg)
# [5] = system: cultured resident peritoneal rat macrophages; assay: Intracellular calcium concentration [Ca2+]i with Fura-2AM in macrophages; type: cell-based
Structure (SMILES),G-6-PDG [1],GR [2],GST [3],GSH (reduced glutathione) [μmol/g protein],GP [4],"[Ca2+]i peak ([5]; 200 μM extracellular ATP, macrophages in normal saline, basal level 75±18 nM) [nM]","average [Ca2+]i during plateau phase ([5]; 4 minutes after the addition of ATP (200 μM), normal saline) [nM]"
"NC(CCC(=O)NC(CS[S+]([O-])CC(NC(=O)CCC(N)C(=O)O)C(=O)NCC(=O)O)C(=O)NCC(=O)O)C(=O)O (stereo not shown) [Example 1, glutathione disulfide S-oxide]",98.1 ± 13.3 μmol/(min × g protein,117.8 ± 12.6 μmol/(min × g protein,1857 ± 120 μmol/(min × g protein,11.21 ± 0.56,27.9 ± 2.2 μmol/(min × g protein,–,–
Nc1ncnc2c1ncn2[C@@H]1O[C@H](COP(=O)(O)OP(=O)(O)OP(=O)(O)O)[C@@H](O)[C@H]1O [ATP],–,–,–,–,–,820 ± 105,460 ± 115
